Structures can show the parent of a compound that is named as a salt.
Legend:
Test in all cases: cells
Set-up in all cases: species or system AML cell lines (8); Secondary HTS, 10-point dose-response in triplicate, Cell Titer Glo viability, four-parameter fit EC50
MV4-11 = conditions: Homo sapiens, MV4-11, 72 h, read-out: MV4-11
U937 = conditions: Homo sapiens, U-937, 72 h, read-out: U937
MOLM-13 = conditions: Homo sapiens, MOLM-13, 72 h, read-out: MOLM-13
ML-2 = conditions: Homo sapiens, ML-2, 72 h, read-out: ML-2
CMK = conditions: Homo sapiens, CMK, 72 h, read-out: CMK
M07e = conditions: M-07e, 72 h, read-out: M07e
CMS = conditions: 72 h, read-out: CMS
CHRF288-11 = conditions: 72 h, read-out: CHRF288-11

Structure (SMILES)	EC50 (MV4-11)	EC50 (U937)	EC50 (MOLM-13)	EC50 (ML-2)	EC50 (CMK)	EC50 (M07e)	EC50 (CMS)	EC50 (CHRF288-11)
Clc1ccc(C(c2ccccc2Cl)C(Cl)Cl)cc1 (stereo not shown) [MITOTANE]	> 10 µM	> 10 µM	> 10 µM	> 10 µM	> 10 µM	> 10 µM	> 10 µM	> 10 µM
O=C(O)CC[C@H]1CC[C@@](c2cc(F)ccc2F)(S(=O)(=O)c2ccc(Cl)cc2)CC1 [MK-0752]	> 10 µM	> 10 µM	> 10 µM	> 10 µM	> 10 µM	> 10 µM	> 10 µM	> 10 µM
COc1ccc2c(c1OC)C(=O)O[C@@H]2[C@H]1c2c(cc3c(c2OC)OCO3)CCN1C [NOSCAPINE HYDROCHLORIDE]	> 10 µM	> 10 µM	> 10 µM	> 10 µM	> 10 µM	> 10 µM	> 10 µM	> 10 µM
CO[C@@H]1[C@@H](OC(N)=O)[C@@H](O)[C@H](Oc2ccc3c(O)c(NC(=O)c4ccc(O)c(CC=C(C)C)c4)c(=O)oc3c2C)OC1(C)C [NOVOBIOCIN SODIUM]	> 10 µM	> 10 µM	> 10 µM	> 10 µM	> 10 µM	> 10 µM	> 10 µM	> 10 µM
CCN1CCN(c2ccc(Nc3cc(N(C)C(=O)Nc4c(Cl)c(OC)cc(OC)c4Cl)ncn3)cc2)CC1 [NVP-BGJ398]	> 10 µM	> 10 µM	> 10 µM	> 10 µM	> 10 µM	> 10 µM	> 10 µM	> 10 µM
Cc1[nH]c(/C=C2\C(=O)Nc3ccccc32)c(C)c1CCC(=O)O [ORANTINIB]	> 10 µM	> 10 µM	> 10 µM	> 10 µM	> 10 µM	> 10 µM	> 10 µM	> 10 µM
Cc1ccc(Nc2nccc(N(C)c3ccc4c(C)n(C)nc4c3)n2)cc1S(N)(=O)=O [PAZOPANIB]	> 10 µM	> 10 µM	> 10 µM	> 10 µM	> 10 µM	> 10 µM	> 10 µM	> 10 µM
OC[C@H]1O[C@@H](n2cnc3c2NC=NC[C@H]3O)C[C@@H]1O [PENTOSTATIN]	> 10 µM	> 10 µM	> 10 µM	> 10 µM	> 10 µM	> 10 µM	> 10 µM	> 10 µM
CCCCCCCCCCCCCCCCCCOP(=O)([O-])OC1CC[N+](C)(C)CC1 [PERIFOSINE]	> 10 µM	> 10 µM	> 10 µM	> 10 µM	> 10 µM	> 10 µM	> 10 µM	> 10 µM
CCCC(=O)OCOC(=O)C(C)(C)C [PIVANEX]	> 10 µM	> 10 µM	> 10 µM	> 10 µM	> 10 µM	> 10 µM	> 10 µM	> 10 µM
CC(C)(C(=O)NCC(F)(F)C(F)(F)F)C(=O)N[C@@H]1C(=O)Nc2ccccc2-c2ccccc21 [RO-4929097]	> 10 µM	> 10 µM	> 10 µM	> 10 µM	> 10 µM	> 10 µM	> 10 µM	> 10 µM
CC(C)c1nc(N(C)S(C)(=O)=O)nc(-c2ccc(F)cc2)c1/C=C/[C@@H](O)C[C@@H](O)CC(=O)O [ROSUVASTATIN]	> 10 µM	> 10 µM	> 10 µM	> 10 µM	> 10 µM	> 10 µM	> 10 µM	> 10 µM
CNCc1ccc(-c2[nH]c3cc(F)cc4c3c2CCNC4=O)cc1 [RUCAPARIB]	> 10 µM	> 10 µM	> 10 µM	> 10 µM	> 10 µM	> 10 µM	> 10 µM	> 10 µM
CC(C)=CCC/C(C)=C/CC/C(C)=C/CSc1ccccc1C(=O)O [SALIRASIB]	> 10 µM	> 10 µM	> 10 µM	> 10 µM	> 10 µM	> 10 µM	> 10 µM	> 10 µM
CCn1c(=O)c(-c2cc[nH]n2)cc2c(C)nc(N)nc21 [SAR245409]	> 10 µM	> 10 µM	> 10 µM	> 10 µM	> 10 µM	> 10 µM	> 10 µM	> 10 µM
NC(=O)c1ccc(-c2nc(-c3ccc4c(c3)OCO4)c(-c3ccccn3)[nH]2)cc1 [SB-431542]	> 10 µM	> 10 µM	> 10 µM	> 10 µM	> 10 µM	> 10 µM	> 10 µM	> 10 µM
Nc1ncnc2c1ncn2[C@@H]1O[C@H](C[C@@H](N)CC[C@H](N)C(=O)O)[C@@H](O)[C@H]1O [SINEFUNGIN]	> 10 µM	> 10 µM	> 10 µM	> 10 µM	> 10 µM	> 10 µM	> 10 µM	> 10 µM
O=C1NC(=O)/C(=C/c2cccc(C(F)(F)F)c2)S1 [SJ000006739, SMI-4A]	> 10 µM	> 10 µM	> 10 µM	> 10 µM	> 10 µM	> 10 µM	> 10 µM	> 10 µM
CCOC(=O)c1cc2ccccc2nc1C [SJ000025189, MC-1626]	> 10 µM	> 10 µM	> 10 µM	> 10 µM	> 10 µM	> 10 µM	> 10 µM	> 10 µM
Cc1ccc(S(=O)(=O)n2c(N)nc3ccccc32)cc1 [SJ000042554, NODINITIB-1]	> 10 µM	> 10 µM	> 10 µM	> 10 µM	> 10 µM	> 10 µM	> 10 µM	> 10 µM
O=C(c1ccc(Cl)cc1Cl)n1nnc2ccccc21 [SJ000142379, ITSA1]	> 10 µM	> 10 µM	5.3 µM	6.2 µM	> 10 µM	> 10 µM	> 10 µM	6.1 µM
Nc1ncn([C@@H]2O[C@H](CO)[C@@H](O)[C@H]2O)c(=O)n1 [SJ000285227, 5-AZACYTIDINE]	> 10 µM	> 10 µM	4.5 µM	> 10 µM	8 µM	> 10 µM	6.83 µM	> 10 µM
CC(C)(C)c1ccc(S(=O)(=O)/C=C/C#N)cc1 [SJ000287676, BAY 11-7085]	1.4 µM	0.93 µM	1.5 µM	1 µM	3.9 µM	3.2 µM	3.1 µM	1.4 µM
O=C1Nc2ccc(I)cc2/C1=C/c1cc(Br)c(O)c(Br)c1 [SJ000287883, GW 5074]	> 10 µM	> 10 µM	> 10 µM	> 10 µM	> 10 µM	> 10 µM	> 10 µM	> 10 µM
O=c1[nH]c2ccccc2c2ccccc12 [SJ000288131, 6(5H)-PHENANTHRIDINONE]	> 10 µM	> 10 µM	2 µM	2.7 µM	> 10 µM	> 10 µM	> 10 µM	2.3 µM
COc1cccc(-c2cc(=O)c3ccccc3o2)c1N [SJ000288145, PD 98059]	> 10 µM	> 10 µM	> 10 µM	> 10 µM	> 10 µM	> 10 µM	> 10 µM	> 10 µM
N#CC(=C(/N)Sc1ccccc1N)/C(C#N)=C(\N)Sc1ccccc1N [SJ000288250, U0126]	> 10 µM	> 10 µM	> 10 µM	> 10 µM	> 10 µM	> 10 µM	> 10 µM	> 10 µM
CCc1c2c(nc3ccc(O)cc13)-c1cc3c(c(=O)n1C2)COC(=O)[C@]3(O)CC [SJ000311679, SN-38]	0.24 µM	0.0372 µM	0.0056 µM	0.00251 µM	0.0232 µM	0.0445 µM	> 10 µM	0.00949 µM
COCCCn1c(N)c(C(=O)NC2CCCC2)c2nc3ccccc3nc21 [SJ000479457, CAY10591]	> 10 µM	> 10 µM	> 10 µM	> 10 µM	> 10 µM	> 10 µM	> 10 µM	> 10 µM

— publication PMC6522510 (Nature Communications, 2019)
